Experimental findings from US8404672B2, “Substituted heterocyclic compounds” (Bristol-Meyers Squibb Company, priority 2009, dated 2013) are described below.

The target of the test is T1, S1P1 (membranes from S1P1/CHO cells) (Homo sapiens, UniProt P21453).
T1 construct: expressed in transfected cells; host or cells: S1P1/CHO cells
Kind of test: Method A: Receptor [35S] GTPγS Binding Assay, S1P1. The format is biochemical. The following applies: Method A; S1P1/CHO membranes. The procedure:
Method A: Receptor [35S] GTPγS Binding Assays
Compounds were loaded in a 384 Falcon v-bottom plate (0.5 μl/well in a 3-fold dilution). Membranes prepared from S1P1/CHO cells or EDG3-Gal5-bla HEK293T cells were added to the compound plate (40 μl/well, final protein 3 μg/well) with MULTIDROP®. [^35S]GTP (1250 Ci/mmol, Perkin Elmer) was diluted in assay buffer: 20 mM HEPES, pH 7.5, 10 mM MgCl2, 150 mM NaCl, 1 mM EGTA, 1 mM DTT, 10 μM GDP, 0.1% fatty acid free BSA, and 10 μg/ml Saponin to 0.4 nM. 40 μl of the [^35S] GTP solution was added to the compound plate with a final concentration of 0.2 nM. The reaction was kept at room temperature for 45 min. At the end of incubation, all the mixtures in the compound plate were transferred to a 384 well FB filter plates via GPCR robot system. The filter plate was washed with water 4 times by using the modified manifold Embla plate washer and dried at 60° C. for 45 min. 30 μA of MicroScint 20 scintillation fluid was added to each well for counting at Packard TOPCOUNT®. EC50 is defined as the agonist concentration that corresponds to 50% of the Ymax (maximal response) obtained for each individual compound tested.
Compounds of the present invention and Comparative Compound A were tested in the Receptor [35S] GTPγS Binding Assays (Method A) and Receptor [35S] In some instances, the value is an average of multiple experiments where N is the number of experiments conducted that provided satisfactory dose response curves. When more than one batch of an example was tested, the value presented is from a batch which allowed a comparison of GTPγS S1P1 and GTPγS S1P3 in which the most number of experiments were performed. Preferably, the same batch was examined in Method A and Method B. Data was not averaged across different batches of an example compound.
(GTPγS is a poorly hydrolysed GTP analogue; its binding reports G protein activation.)

T1 sequence (P21453 whole entry): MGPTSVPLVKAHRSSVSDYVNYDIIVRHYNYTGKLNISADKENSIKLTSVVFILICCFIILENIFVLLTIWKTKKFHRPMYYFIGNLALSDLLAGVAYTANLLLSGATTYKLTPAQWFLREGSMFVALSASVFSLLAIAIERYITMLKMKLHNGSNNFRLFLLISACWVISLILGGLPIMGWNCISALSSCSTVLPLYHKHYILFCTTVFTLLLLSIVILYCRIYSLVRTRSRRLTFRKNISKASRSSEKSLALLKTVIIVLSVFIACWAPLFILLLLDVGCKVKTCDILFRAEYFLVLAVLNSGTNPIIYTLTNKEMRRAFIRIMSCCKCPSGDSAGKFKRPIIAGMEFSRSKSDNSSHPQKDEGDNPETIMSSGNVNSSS

What is called EC50 is the concentration giving half of the maximal effect. A high value points to lower potency in that assay. Turning to `O=C(O)C1CN(Cc2ccc(-c3noc(-c4onc(-c5ccccn5)c4C(F)(F)F)n3)cc2)C1` [Example 1, 1-(4-(5-(3-(Pyridin-2-yl)-4-(trifluoromethyl)isoxazol-5-yl)-1,2,4-oxadiazol-3-yl)benzyl)azetidine-3-carboxylic acid], the EC50 was 1.4 nM.
